Source: patent US8981179B2, “Transgenic non-human animal and uses thereof” (Sanofi, priority 2009, dated 2015)

Legend:
[1] = Blood glucose in unfasted CRE-luc mice; assay type: in vivo, mouse; conditions: line 11, STZ 200 mpk, ip, unfasted mice
Procedure: The induction of CRE-Luc by AVE0010 is likely beta-cell-specific (FIG. 31). Animals were treated as described in FIG. 30. Blood glucose levels were measured by tail vein nicking on unfasted mice. Glucose levels were read on a Bayer glucometer. Glucose levels are shown as mg glucose/[…]. Fold induction is the luciferase bioimaging levels of AVE10 dosing versus the baseline signals. Blood glucose levels (BG) were increased by STZ (upper left panel). Non-fasting BG levels were reduced by AVE0010 (0.1 mg/kg, sc).

beta-cell = assay: Effect of beta-cell toxin on induction of CRE-Luc by AVE0010; assay type: in vivo, mouse; conditions: line 11, STZ 200 mpk, ip, imaged four days later after AVE0010
Procedure: Male CRE-luc mice (line 11) were imaged before and after AVE0010 (0.1 mg/kg, sc) treatment. […] Then, the animals were treated with vehicle or STZ (200 mpk, ip). Four days later, they were imaged again after AVE0010 treatment.

[2] = target: T1, prostaglandin D2 receptor 1 (DP1) (Mus musculus, UniProt P70263); assay: Whole splenocytes CreLuc luciferase assay, DP1 agonist; assay type: cell-based; conditions: line 64 whole splenocytes, 10 uM, 4 hours
T1 construct: Primary microglia were isolated from the cortices from P2 mice; endogenous in cells; host or cells: whole splenocytes, CD4+ T cells and primary microglia (P2 cortices), CreLuc mouse line 64
T1 sequence (P70263 1-357): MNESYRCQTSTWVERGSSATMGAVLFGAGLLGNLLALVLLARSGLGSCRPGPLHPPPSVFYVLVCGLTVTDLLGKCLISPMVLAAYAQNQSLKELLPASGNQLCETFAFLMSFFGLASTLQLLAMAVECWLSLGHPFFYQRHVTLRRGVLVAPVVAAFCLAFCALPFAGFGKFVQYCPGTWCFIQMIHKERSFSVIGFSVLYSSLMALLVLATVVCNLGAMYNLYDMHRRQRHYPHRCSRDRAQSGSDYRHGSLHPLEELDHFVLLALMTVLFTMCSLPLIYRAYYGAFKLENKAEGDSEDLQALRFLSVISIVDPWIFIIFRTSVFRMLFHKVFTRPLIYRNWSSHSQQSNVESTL
Procedure: Whole splenocyte preps isolated from CreLuc mice were used to show the effects of general cAMP inducers such as forskolin and rolipram, as well as Gs agonists on luciferase expression (FIG. 16). Spleens were harvested from the animals in 1×HBSS (Invitrogen, Carlsbad, Calif., cat#14025). The cells were then isolated by mechanically disrupting the spleen capsule using the end of a 5 ml syringe in 5 mls of D-PBS (Invitrogen, Carlsbad, Calif., cat#14190). The cell suspension was then passed through a 70 um strainer into a 50 ml conical tube. The cells were then spun down at 800 rpm, then resuspended and incubated for 6 minutes at room temperature in 5 ml of 1× Pharm Lyse solution (BD BioSciences, cat#555899). Cells were then washed by adding 28 mls of media consisting of RPMI 1640 (Invitrogen, Carlsbad, Calif., cat#11875), 10% FCS (Invitrogen, Carlsbad, Calif., cat#16000), 1% pen/strep (Invitrogen, Carlsbad, Calif., cat#15070) and 0.1% β-mercaptoethanol (Invitrogen, Carlsbad, Calif., cat#21985). Cells were diluted to 2×10^6/ml, and 100 ul of the cells were plated per well in a 96 well white opaque plate. Half of the cells were stimulated for 24 hours with anti-CD3 antibody (BD Pharmingen, cat#553058), the other half were untreated. […] After 4 hours, 100 μl of BrightGlo (Promega, Madison, Wis., cat#E2610) and the assay was read on a TopCount luminometer. […]

DP = target: T2, DP (Mus musculus, UniProt P70263); assay: Isolated CD4+ T cells CreLuc luciferase assay, DP agonist; assay type: cell-based; conditions: line 64 CD4+ T cells, anti CD3 24 hours, 10 μM, 4 hours
T2 construct: Primary microglia were isolated from the cortices from P2 mice; endogenous in cells; host or cells: whole splenocytes, CD4+ T cells and primary microglia (P2 cortices), CreLuc mouse line 64
T2 sequence (P70263 1-357): T1 sequence (P70263 1-357)
Procedure: The effects of different Gs agonists on luciferase levels in anti CD3 stimulated CD4+ T cells isolated from CreLuc mice was studied (FIG. 19). Whole splenocyte populations were prepared by mechanical disruption. CD4+ cells were then isolated by MACS Magnetic Separation with Positive Selection (Miltenyi Biotec cat#130-049-201). The cells, 1.5×10^5 per well, were then plated on 96 well white opaque plates and then stimulated with anti CD3 antibodies (BD Pharmingen cat#553058). After 24 hours, compounds were added for an additional 4 hours. Gs agonists for DP (BW245C), EP2 (EX00000173A) and ADβR (isoproterenol) were all used at 10 μM. Forskolin 5 μM, and rolipram 10 μM. BrightGlo (Promega, Madison, Wis., cat#E2610) was added and the assay was read on the TopCount. A 25-fold increase is observed in cells treated with forskolin and rolipram. […] The transgene was responsive to specific Gs agonists as well as general modulators of the cAMP pathway.

DP1 receptor = target: T3, DP1 receptor (Mus musculus, UniProt P70263); assay: Primary microglia CreLuc luciferase assay, DP agonist; assay type: cell-based; conditions: 10 μM, 4 hours
T3 construct: Primary microglia were isolated from the cortices from P2 mice; endogenous in cells; host or cells: whole splenocytes, CD4+ T cells and primary microglia (P2 cortices), CreLuc mouse line 64
T3 sequence (P70263 1-357): T1 sequence (P70263 1-357)
Procedure: (§1) Induction of luciferase expression in microglia isolated from CreLuc mice by the general cAMP activators, forskolin and rolipram, and an agonist for the DP receptor, BW245C was examined (FIG. 22). Primary microglia were isolated from the cortices from P2 mice in media consisting of DMEM (GIBCO Cat#11995), 10% FBS (GIBCO Cat#16140) and 1% Penicillin-Streptomycin 100× (GIBCO Cat#15140). The cells were plated in 96 well format on Poly-D-Lysine-coated plates. Cells were either left untreated or stimulated for 2 hours with 100 ng/ml LPS. Compounds were then added for an additional 4 hours before the Bright Glo assay was run. The compounds used were 5 μM forskolin, 10 μM rolipram or the combination of the two, or the Gs agonist for the DP1 receptor, BW245C at 10 μM. In unstimulated conditions, microglia are unresponsive to general cAMP modulators and the specific Gs agonist for the DP receptor. However, when microglia were stimulated with LPS, the cells became responsive to forskolin and BW245C.

plasma cAMP [3] = conditions: Balb/c mice, 10 mg/kg, blood harvested after 20 minutes; cited from earlier work
[4] = tested on: cAMP (CreLuc luciferase reporter); assay: Primary microglia CreLuc luciferase assay, general cAMP activators; assay type: cell-based, mouse; conditions: line 64, unstimulated, 5 μM forskolin, 10 μM rolipram, 4 hours
Procedure: as §1

plasma cAMP [5] = assay: In vivo stimulation of cAMP in plasma (ELISA); design: species or system FVB/Tac mice; conditions: FVB/Tac females, i.p., forskolin 5 mg/kg, rolipram 10 mg/kg, 30 minutes
Procedure: FVB/Tac females were dosed with either vehicle (1% DMSO) or drugs i.p., then 30 minutes later, blood samples were collected and assayed for cAMP by ELISA (Assay Designs, Ann Arbor, Mich., cat#900-163). The drugs used are as follows: 5 mg/kg forskolin (F) (Sigma F6886), 5 mg/kg water soluble forskolin (H20F) (Calbiochem 344273), 10 mg/kg rolipram (R) (Sigma R6520) or combinations of either forskolin plus rolipram (F/R). […] Forskolin increases cAMP levels by activating adencylate cyclase while inhibitors of PDE4, such as rolipram, raise plasma cAMP by preventing hydrolysis of cAMP. A combination of rolipram and water soluble forskolin increases cAMP levels in vivo 14 fold. This combination was used to provide a large window of induction for founder screening by bioimaging, a representative study is shown in FIG. 6.
FIG. 5B is a cAMP assay on plasma levels in wild-type mice following various treatment with forskolin (F), rolipram (R) or a combination of forskolin and rolipram (F/R). […]

SMILES: CN(N=O)C(=O)N[C@H]1C(O)O[C@H](CO)[C@@H](O)[C@@H]1O (mixture of isomers) [STZ, streptozotocin]
- blood glucose levels (BG) [1]: increased
- luciferase induction by AVE0010 compared to vehicle group (beta-cell): decreased luciferase induction

SMILES: O=C(O)CCCCCCC1C(=O)NC(=O)N1CCC(O)C1CCCCC1 (stereo not drawn) [BW245C]
- luciferase versus DMSO only control (t-test) [2]: Statistically significant increases
- increase of luciferase (DP): 3 fold
- luciferase response of LPS stimulated microglia (DP1 receptor; line 64, 100 ng/ml LPS 2 hours): responsive
- luciferase response of unstimulated microglia (DP1 receptor; line 64, unstimulated): unresponsive

SMILES: COc1ccc(C2CNC(=O)C2)cc1OC1CCCC1 (stereo not drawn) [rolipram]
- plasma cAMP levels (plasma cAMP [3]): significantly increase
- luciferase response of unstimulated microglia [4]: unresponsive
- elevation of circulating cAMP levels vs vehicle (plasma cAMP [5]): statistically significance in their elevation
